Experimental data published in patent US10815205B2, “Amide-substituted phenyltriazole derivatives and uses thereof” (BAYER PHARMA AKTIENGESELLSCHAFT, priority 2016, dated 2020).

What was measured:
[1] = target: T1, human V1a receptor (Homo sapiens, UniProt P37288); assay: Cellular in vitro assay for vasopressin receptor activity, V1a receptor cell line (aequorin luminescence); assay type: cell-based; settings: Table 1A; for IC50: CHO cell line transfected with human V1a receptor, [Arg8]-vasopressin at EC50, read-out: IC50 hV1a; for ratio IC50 hV2/hV1a: selectivity V1a over V2
T1 construct: expressed in transfected cells; host or cells: CHO K1 (ATCC), also stably transfected with a modified aequorin
Experimental: (§1) B-1. Cellular In Vitro Assay for Determining Vasopressin Receptor Activity
(§2) The identification of agonists and antagonists of the V1a and V2 vasopressin receptors from humans, rats and dogs as well as the quantification of the activity of the compounds of the invention is carried out using recombinant cell lines. These cell lines originally derive from a hamster's ovary epithelial cell (Chinese Hamster Ovary, CHO K1, ATCC: American Type Culture Collection, Manassas, Va. 20108, USA). The test cell lines constitutively express the human, rat or dog V1a or V2 receptors. In case of the Gαq-coupled V1a receptors, cells are also stably transfected with a modified form of the calcium-sensitive photoproteins aequorin (human and rat V1a) or obe-lin (dog V1a), which, after reconstitution with the cofactor coelenterazine, emit light when there are increases in free calcium concentrations [Rizzuto R, Simpson A W, Brini M, Pozzan T, Nature 358, 325-327 (1992); Illarionov B A, Bondar V S, Illarionova V A, Vysotski E S, Gene 153 (2), 273-274 (1995)]. The resulting vasopressin receptor cells react to stimulation of the recombinantly expressed V1a receptors by intracellular release of calcium ions, which can be quantified by the resulting photoprotein luminescence. The Gs-coupled V2 receptors are stably transfected into cell lines expressing the gene for firefly luciferase under control of a CRE-responsible promoter. Activation of V2 receptors induces the activation of the CRE-responsive promoter via cAMP increase, thereby inducing the expression of firefly luciferase. The light emitted by photoproteins of V1a cell lines as well as the light emitted by firefly luciferase of V2 cell lines corresponds to the activation or inhibition of the respective vasopressin receptor. The bioluminescence of the cell lines is detected using a suitable luminometer [Milligan G, Marshall F, Rees S, Trends in Pharmacological Sciences 17, 235-237 (1996)].
Vasopressin V1a Receptor Cell Lines:
On the day before the assay, the cells are plated out in culture medium (DMEM/F12, 2% FCS, 2 mM glutamine, 10 mM HEPES, 5 μg/ml coelenterazine) in 384-well microtiter plates and kept in a cell incubator (96% humidity, 5% v/v CO2, 37° C.). On the day of the assay, test compounds in various concentrations are placed for 10 minutes in the wells of the microtiter plate before the agonist [Arg^8]-vasopressin at EC50 concentration is added. The resulting light signal is measured immediately in a luminometer.

[2] = target: T2, human V2 receptor (Homo sapiens, UniProt P30518); assay: Cellular in vitro assay for vasopressin receptor activity, V2 receptor cell line (CRE-luciferase); assay type: cell-based; settings: Table 1A; CHO cell line transfected with human V2 receptor; [Arg8]-vasopressin at EC50; read-out: IC50 hV2
T2 construct: expressed in transfected cells; host or cells: CHO K1 (ATCC) expressing firefly luciferase under a CRE-responsive promoter
Experimental: as §1, §2
Vasopressin V2 Receptor Cell Lines:
On the day before the assay, the cells are plated out in culture medium (DMEM/F12, 2% FCS, 2 mM glutamine, 10 mM HEPES) in 384-well microtiter plates and kept in a cell incubator (96% humidity, 5% v/v CO2, 37° C.). On the day of the assay, test compounds in various concentrations and the agonist [Arg^8]-vasopressin at EC50 concentration are added together to the wells, and plates are incubated for 3 hours in a cell incubator. Upon addition of the cell lysis reagent Triton™ and the substrate luciferin, luminescence of firefly luciferase is measured in a luminometer.

T1 sequence (P37288 whole entry): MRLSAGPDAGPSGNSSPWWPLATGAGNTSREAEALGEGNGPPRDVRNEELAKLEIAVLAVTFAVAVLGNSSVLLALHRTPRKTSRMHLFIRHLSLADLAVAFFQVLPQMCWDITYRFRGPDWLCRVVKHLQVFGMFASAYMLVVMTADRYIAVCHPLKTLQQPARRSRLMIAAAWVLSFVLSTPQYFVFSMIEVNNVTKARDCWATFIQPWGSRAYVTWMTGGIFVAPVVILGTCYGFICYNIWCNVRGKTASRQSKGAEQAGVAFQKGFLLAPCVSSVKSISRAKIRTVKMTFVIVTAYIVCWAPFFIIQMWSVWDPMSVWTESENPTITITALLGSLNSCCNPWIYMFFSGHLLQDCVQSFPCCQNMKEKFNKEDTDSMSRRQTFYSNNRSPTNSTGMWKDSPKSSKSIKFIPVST
T2 sequence (P30518 whole entry): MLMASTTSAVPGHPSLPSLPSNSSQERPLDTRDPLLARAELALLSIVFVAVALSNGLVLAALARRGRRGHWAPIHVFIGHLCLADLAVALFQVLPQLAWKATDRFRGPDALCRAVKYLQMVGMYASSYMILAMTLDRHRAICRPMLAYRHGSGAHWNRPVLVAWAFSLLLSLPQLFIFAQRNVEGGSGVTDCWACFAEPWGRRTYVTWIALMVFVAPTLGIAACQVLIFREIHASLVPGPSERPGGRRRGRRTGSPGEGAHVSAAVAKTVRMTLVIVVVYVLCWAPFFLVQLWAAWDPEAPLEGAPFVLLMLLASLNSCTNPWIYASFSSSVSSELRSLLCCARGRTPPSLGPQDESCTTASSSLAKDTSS

| IC50 [1] [nM] | ratio IC50 hV2/hV1a [1] | IC50 [2] [nM] | Structure (SMILES) |
| --- | --- | --- | --- |
| 1.25 | 60.4 | 75.5 | NC(=O)c1nc(Cn2nc(-c3ccc(Cl)cc3)n(C[C@H](O)C(F)(F)F)c2=O)nn1-c1ccccc1OC(F)(F)F [Example 3, 3-({3-(4-Chlorophenyl)-5-oxo-4-[(2S)-3,3,3-trifluoro-2-hydroxypropyl]-4,5-dihydro-1H-1,2,4-triazol-1-yl}methyl)-1-[2-(trifluoromethoxy)phenyl]-1H-1,2,4-triazole-5-carboxamide] |
| 0.58 | 41.4 | 23.9 | NC(=O)c1nc(Cn2nc(-c3ccc(Cl)cc3)n(C[C@H](O)C(F)(F)F)c2=O)nn1-c1ccccc1C(F)(F)F [Example 1, 3-({3-(4-Chlorophenyl)-5-oxo-4-[(2S)-3,3,3-trifluoro-2-hydroxypropyl]-4,5-dihydro-H-1,2,4-triazol-1-yl}methyl)-1-[2-(trifluoromethyl)phenyl]-1H-1,2,4-triazole-5-carboxamide] |
| 9.65 | 68.9 | 665 | NC(=O)c1nc(Cn2nc(-c3ccc(Cl)cc3)n(C[C@@H](O)C(F)(F)F)c2=O)nn1-c1ccccc1OC(F)(F)F [Example 4, 3-({3-(4-Chlorophenyl)-5-oxo-4-[(2R)-3,3,3-trifluoro-2-hydroxypropyl]-4,5-dihydro-1H-1,2,4-triazol-1-yl}methyl)-1-[2-(trifluoromethoxy)phenyl]-1H-1,2,4-triazole-5-carboxamide] |
| 2.35 | 74.5 | 175 | NC(=O)c1nc(Cn2nc(-c3ccc(Cl)cc3)n(C[C@@H](O)C(F)(F)F)c2=O)nn1-c1ccccc1C(F)(F)F [Example 2, 3-({3-(4-Chlorophenyl)-5-oxo-4-[(2R)-3,3,3-trifluoro-2-hydroxypropyl]-4,5-dihydro-1H-1,2,4-triazol-1-yl}methyl)-1-[2-(trifluoromethyl)phenyl]-1H-1,2,4-triazole-5-carboxamide] |

The remaining lines, values behind:

| Structure (SMILES) | IC50 [1] [nM] | ratio IC50 hV2/hV1a [1] | IC50 [2] [nM] |
| --- | --- | --- | --- |
| NC(=O)c1nc(Cn2nc(-c3ccc(Cl)cc3)n(CC(=O)C(F)(F)F)c2=O)nn1-c1ccccc1OC(F)(F)F [Example 9, 3-{[3-(4-chlorophenyl)-5-oxo-4-(3,3,3-trifluoro-2-oxopropyl)-4,5-dihydro-H-1,2,4-triazol-1-yl]methyl}-1-[2-(trifluoromethoxy)phenyl]-1H-1,2,4-triazole-5-carboxamide (ketone form) or 3-{[3-(4-chlorophenyl)-5-oxo-4-(3,3,3-trifluoro-2,2-dihydroxypropyl)-4,5-dihydro-1H-1,2,4-triazol-1-yl]methyl}-1-[2-(trifluoromethoxy)phenyl]-1H-1,2,4-triazole-5-carboxamide (hydrate form)] | 8.95 | 11.9 | 106 |
| NC(=O)c1nc(Cn2nc(-c3ccc(Cl)cc3)n(CC(=O)C(F)(F)F)c2=O)nn1-c1ccccc1C(F)(F)F [Example 8, 3-{[3-(4-chlorophenyl)-5-oxo-4-(3,3,3-trifluoro-2-oxopropyl)-4,5-dihydro-H-1,2,4-triazol-1-yl]methyl}-1-[2-(trifluoromethyl)phenyl]-1H-1,2,4-triazole-5-carboxamide (ketone form) or 3-{[3-(4-chlorophenyl)-5-oxo-4-(3,3,3-trifluoro-2,2-dihydroxypropyl)-4,5-dihydro-H-1,2,4-triazol-1-yl]methyl}-1-[2-(trifluoromethyl)phenyl]-1H-1,2,4-triazole-5-carboxamide (hydrate form)] | 1.85 | 18.2 | 33.7 |
| CNC(=O)c1ccccc1-n1nc(Cn2nc(-c3ccc(Cl)cc3)n(C[C@H](O)C(F)(F)F)c2=O)nc1C(N)=O [Example 6, 3-({3-(4-Chlorophenyl)-5-oxo-4-[(2S)-3,3,3-trifluoro-2-hydroxypropyl]-4,5-dihydro-1H-1,2,4-triazol-1-yl}methyl)-1-[2-(methylcarbamoyl)phenyl]-1H-1,2,4-triazole-5-carboxamide] | 12.9 | 75.6 | 975 |
| CCOc1ccccc1-n1nc(Cn2nc(-c3ccc(Cl)cc3)n(C[C@H](O)C(F)(F)F)c2=O)nc1C(N)=O [Example 5, 3-({3-(4-Chlorophenyl)-5-oxo-4-[(2S)-3,3,3-trifluoro-2-hydroxypropyl]-4,5-dihydro-1H-1,2,4-triazol-1-yl}methyl)-1-(2-ethoxyphenyl)-1H-1,2,4-triazole-5-carboxamide] | 1.6 | 24.1 | 38.5 |
| CCOc1ccccc1-n1nc(Cn2nc(-c3ccc(Cl)cc3)n(C[C@@H](O)C(F)(F)F)c2=O)nc1C(N)=O [Example 10, 3-({3-(4-Chlorophenyl)-5-oxo-4-[(2R)-3,3,3-trifluoro-2-hydroxypropyl]-4,5-dihydro-H-1,2,4-triazol-1-yl}methyl)-1-(2-ethoxyphenyl)-1H-1,2,4-triazole-5-carboxamide] | 8.2 | 108.5 | 890 |
| CS(=O)(=O)c1ccccc1-n1nc(Cn2nc(-c3ccc(Cl)cc3)n(C[C@H](O)C(F)(F)F)c2=O)nc1C(N)=O [Example 7, 3-({3-(4-Chlorophenyl)-5-oxo-4-[(2S)-3,3,3-trifluoro-2-hydroxypropyl]-4,5-dihydro-1H-1,2,4-triazol-1-yl}methyl)-1-[2-(methylsulfonyl)phenyl]-1H-1,2,4-triazole-5-carboxamide] | 17.5 | 40.7 | 712 |
